In PMC11643554, “Synthesis, Cytotoxicity and Antiproliferative Effect of New Pyrrole Hydrazones” (Molecules, 2024):
Several values for one entry are separate records, joined by “and”; a condition that tells them apart may be missing. Identical values can stand only once. Like-named read-outs stand apart in the source and are kept apart here.

Columns and labels:
[1] = system: mouse embryonic fibroblasts BALB 3T3 clone A31; test: BALB 3T3 Neutral Red Uptake safety test (cytotoxicity/phototoxicity); assay type: cell-based; conditions: PIF = CC50 −Irr/CC50 +Irr; PIF < 2 not phototoxic, 2 < PIF < 5 probable phototoxicity, PIF > 5 phototoxic
Protocol: (§1) The Neutral Red Uptake in vitro assay is a colorimetric method for assessing cell viability. This method is based on the ability of living cells to incorporate Neutral Red dye into lysosomes. Mouse embryonic fibroblasts were seeded at 1 × 10^4 cells/100 μL culture medium/well in 96-well cell culture microplates. The cells were incubated for 24 h to allow cell adhesion. The cells were then treated with a solution of the test substances in double-increasing concentrations (from 15 to 4000 μM). The phototoxicity test was performed in parallel on a second 96-well plate, which was irradiated with a solar simulator (LED lamp—Helios-iO (SERIC Ltd., Tokyo, Japan) for 10 min (irradiation dose 0.86 J). After 24 h of incubation, a culture medium containing Neutral Red was added. After 3 h of incubation, the wells were washed with PBS, and a Desorb solution (50% Ethanol, 1% Acetic acid, 49% dH2O) was added. The optical density (OD) was measured by a microplate reader at λ = 540 nm. The percentage of cytotoxicity was calculated according to the following formula:Cytotoxicity (%) = (1 − (OD540 (sample)/OD540 (negative control))) × 100 Phototoxicity is expressed by Photoirritation factor (PIF), PIF = CC50 − Irr/CC50 +Irr* * Irradiation

[2] = as above; assay type: cell-based, mouse; conditions: mouse, BALB 3T3 clone A31 embryonic fibroblasts, BALB 3T3, NRU, 24 h incubation, n = 6
Protocol: as §1

[3] = system: human keratinocytes HaCaT; test: Antiproliferative activity, MTT dye reduction assay, HaCaT; assay type: cell-based; conditions: non-tumor keratinocytes HaCaT, 72 h, n = 6, read-out: Mean IC50 ± SD, HaCaT
Protocol: (§2) The antiproliferative activity of the studied substances was determined by MTT dye reduction assay. The assay is based on the metabolism of MTT by reductases in the mitochondria to formazan, the concentration of which can be determined photometrically. The measured absorbance is an indicator of cell viability and metabolic activity. Cells were seeded in 96-well cell culture plates (1 × 10^3 cells/well). Followed by incubation at 37 °C, 5% CO2 for 24 h. Followed by incubation for 72 h of the cells with the studied substances in twice increasing concentrations. After washing with PBS, 100 µL/well of MTT solution (0.5 mg/mL) was added. After 3 h of incubation, the 96-well plates were washed with PBS, and 100 µL/well of lysing solution (DMSO/Ethanol = 1/1) was added. Optical density was measured at a wavelength of 540 nm. The antiproliferative activity expressed in % of the negative control was calculated according to the following formula:Antiproliferative activity (%) = (1 − (OD540 (sample)/OD540 (negative control))) × 100
(§3) The IC50 values (a concentration that inhibited 50% cell proliferation) were calculated using non-linear regression analysis (GraphPad Prizm8 Software). The statistical analysis included the application of one-way ANOVA followed by Bonferroni’s post hoc test. p < 0.05 was accepted as the lowest level of statistical significance. All results are presented as mean ± SD.

human melanoma SH-4 = test: Antiproliferative activity, MTT dye reduction assay, SH-4; assay type: cell-based; conditions: for IC50: melanoma SH-4, MTT, 72 h, n = 6, read-out: Mean IC50 ± SD, SH-4; for SI (Selective index): SI = IC50 (non-tumor cell line HaCaT)/IC50 (tumor cell line SH-4)
Protocol: as §2, §3

SH-4 cells [4] = test: Cell cycle analysis, PI stain, flow cytometry; assay type: cell-based, human; conditions: SH-4, 48 h; for G2 phase, percentage of cells / S phase, percentage of cells / G0/G1 phase, percentage of cells: 1 6 µM, 1A 260 µM, 1B 260 µM, 1C 40 µM, 1D 8 µM, cisplatin 20 µM; for G2 phase, percentage of cells: control 12.1; for S phase, percentage of cells: control 21.6; for G0/G1 phase, percentage of cells: control 63.6; for effect on cell cycle distribution (in words): at IC50 doses
Protocol: After incubation, cells were washed twice with ice-cold PBS and fixed with ice-cold 70% ethanol at −20 °C overnight. The cells were treated with 20 µg/mL RNase A at 37 °C for 60 min, then washed with PBS and finally stained with 20 µg/mL PI in the dark for 30 min. The cellular DNA content for the cell cycle distribution analysis was performed with the system software (BD FACS DIVA software (BD Biosciences, Franklin Lakes, NJ, USA)), plotting at least 10,000 events per sample. Three independent experiments were performed, with two replicates per experiment.

SH-4 cells [5] = test: Annexin V-FITC/PI flow cytometry assay (apoptosis); assay type: cell-based, human; conditions: for Early apoptosis (Annexin V+/PI−, Q3) / Late apoptosis (Annexin V+/PI+, Q2) / Necrosis (Annexin V−/PI+, Q1) / Live (viable cells, Annexin V−/PI−, Q4): 1 6 µM, 1A 260 µM, 1B 260 µM, cisplatin 20 µM; for Early apoptosis (Annexin V+/PI−, Q3) / Late apoptosis (Annexin V+/PI+, Q2) / Necrosis (Annexin V−/PI+, Q1) / Live (viable cells, Annexin V−/PI−, Q4) / population fraction of total apoptotic cells: 1C 40 µM, 1D 8 µM
Protocol: Apoptosis was discriminated with the annexin V-FITC/PI test according to the manufacturer’s protocol (SIGMA-ALDRICH APOAF). […] After completion of each drug incubation, cell media that may contain cells in suspension was centrifuged at 350× g for 5 min. Subsequently, the cell monolayers were washed once with PBS, and cells were detached with trypsin and then collected together with a centrifuged pellet. The cells were washed twice with cold PBS and then resuspended in a Binding Buffer (0.1 M Hepes/NaOH (pH 7.4), 1.4 M NaCl, 25 mM CaCl2) at a concentration of 1 × 10^5 cells/mL. The cells were incubated with 5 µL of FITC Annexin V and 10 µL PI for 20 min at RT (25 °C) in the dark. The analysis was performed with BD FACS DIVA software version 7.0 (BD Biosciences, Franklin Lakes, NJ, USA). Data were analyzed as follows: lower left quadrant, viable cells (Annexin V−/PI−); lower right quadrant, early apoptotic cells (Annexin V+/PI−); upper right quadrant, late apoptotic cells (annexin V+/PI+); upper left quadrant, necrotic cells (annexin V−/PI+). Three independent experiments were performed, with two replicates per experiment.

[6] = irradiated with solar simulator 10 min (0.86 J), read-out: Mean CC50 ± SD, +Irr
[7] = without irradiation, read-out: Mean CC50 ± SD, −Irr

melting point	IC50 (human melanoma SH-4; Homo sapiens)	Structure (SMILES)	PIF (Photo Irritation Factor) [1]	CC50 at 24 h [2, 6]	CC50 at 24 h [2, 7]	G2 phase, percentage of cells (SH-4 cells [4])	S phase, percentage of cells (SH-4 cells [4])	G0/G1 phase, percentage of cells (SH-4 cells [4])	Early apoptosis (Annexin V+/PI−, Q3) (SH-4 cells [5]; SH-4, 48 h)	Late apoptosis (Annexin V+/PI+, Q2) (SH-4 cells [5]; SH-4, 48 h)	Necrosis (Annexin V−/PI+, Q1) (SH-4 cells [5]; SH-4, 48 h)	IC50 ([3]; Homo sapiens)	SI (Selective index) (human melanoma SH-4)	effect on cell cycle distribution (in words) (SH-4 cells [4])	Live (viable cells, Annexin V−/PI−, Q4) (SH-4 cells [5]; SH-4, 48 h)	further results
		CN(C)CCCN1c2ccccc2Sc2ccc(Cl)cc21 [Chlorpromazine, reference compound]	7.21	9.13 ± 0.72 µM	65.8 ± 2.64 µM											
		N.N.[Cl][Pt][Cl] [Cisplatin, reference compound]				17.7%	61.3%	17.8%	36.4%	2.59%	0.34%					IC50 [3]: 8.64 ± 0.42 µM; IC50 (human melanoma SH-4): 22.8 ± 1.47 µM
170 to 173 °C	6.86 ± 0.6 µM	CCOC(=O)c1cc(-c2ccc(Cl)cc2)n(C(Cc2ccccc2)C(=O)NN)c1C (stereo not drawn) [Compound 1, Ethyl-5-(4-chlorophenyl)-1-(1-hydrazinyl-1-oxo-3-phenylpropan-2-yl)-2-methyl-1H-pyrrole-3-carboxylate]	0.94	55.8 ± 4.49 µM	52.3 ± 2.63 µM	13.4%	28.5%	57%	42.7%	8.74%	0.19%	9.64 ± 0.58 µM	1.41			viability at 6 µM (SH-4 cells [5]; Homo sapiens, SH-4, 48 h, read-out: Live (viable cells, Annexin V−/PI−, Q4)): 48.3%; increase of total apoptotic cell populations compared to the control group (SH-4 cells [5]; SH-4, 48 h incubation, 6 µM): 50%
109 to 112 °C	270 ± 13.5 µM	CCOC(=O)c1cc(-c2ccc(Cl)cc2)n(C(Cc2ccccc2)C(=O)N/N=C/c2[nH]c(C(=O)OCC)c(C)c2C(=O)OCC)c1C (stereo not drawn) [Compound 1A, Diethyl(E)-5-((2-(2-(5-(4-chlorophenyl)-3-(ethoxycarbonyl)-2-methyl-1H-pyrrol-1-yl)-3-phenylpropanoyl)hydrazineylidene)methyl)-3-methyl-1H-pyrrole-2,4-dicarboxylate]	1.11	2840 ± 124 µM	3140 ± 167 µM	14.8%	24.5%	59.8%	36.5%	4.78%	0.50%	503 ± 31.1 µM	1.87	no significant changes in the cell cycle distribution	58.2%	apoptotic activity (in words) (SH-4 cells [5]; SH-4, 48 h, 260 µM, versus Cisplatin 20 µM): comparable apoptotic activity with positive control
129 to 132 °C	258 ± 16.1 µM	CCOC(=O)c1cc(-c2ccc(Cl)cc2)n(C(Cc2ccccc2)C(=O)N/N=C/c2[nH]c(C)c(C(=O)OCC)c2C)c1C (stereo not drawn) [Compound 1B, Ethyl(E)-5-(4-chlorophenyl)-1-(1-(2-((4-(ethoxycarbonyl)-3,5-dimethyl-1H-pyrrol-2-yl)methylene)hydrazineyl)-1-oxo-3-phenylpropan-2-yl)-2-methyl-1H-pyrrole-3-carboxylate]	0.96	2270 ± 55.4 µM	2180 ± 154 µM	13.6%	34%	50.2%	48.9%	6.1%	0.46%	544 ± 26.8 µM	2.11	slight increase in the S phase population	44.6%	apoptotic potential higher than α-aldehyde derivative 1A (SH-4 cells [5]; SH-4, 48 h, 260 µM): 14%
> 230 °C	44.6 ± 3.51 µM	CCOC(=O)c1cc(-c2ccc(Cl)cc2)n(C(Cc2ccccc2)C(=O)N/N=C/c2c(C)[nH]c(C(=O)OCC)c2C)c1C (stereo not drawn) [Compound 1C, Ethyl(E)-4-((2-(2-(5-(4-chlorophenyl)-3-(ethoxycarbonyl)-2-methyl-1H-pyrrol-1-yl)-3-phenylpropanoyl)hydrazineylidene)methyl)-3,5-dimethyl-1H-pyrrole-2-carboxylate]	0.95	1750 ± 31.7 µM	1670 ± 41.5 µM	24.5%	38.5% and 38%	35%	39%	7.13%	0.43%	171 ± 4.09 µM	3.83	induction of S-phase arrest	53.4%	population fraction of total apoptotic cells (SH-4 cells [5]; SH-4, 48 h): around 46%
> 230 °C	8.72 ± 0.6 µM	CCOC(=O)c1cc(-c2ccc(Cl)cc2)n(C(Cc2ccccc2)C(=O)N/N=C/c2c(C)[nH]c(C)c2C(=O)OCC)c1C (stereo not drawn) [Compound 1D, Ethyl(E)-5-(4-chlorophenyl)-1-(1-(2-((4-(ethoxycarbonyl)-2,5-dimethyl-1H-pyrrol-3-yl)methylene)hydrazineyl)-1-oxo-3-phenylpropan-2-yl)-2-methyl-1H-pyrrole-3-carboxylate]	1.13	3370 ± 130 µM	3800 ± 185 µM	23.2%	46.4% and 46%	28.3%	32.5%	6.51%	0.78%	11 ± 0.42 µM	1.26	induction of S-phase arrest	60.2%	population fraction of total apoptotic cells (SH-4 cells [5]; SH-4, 48 h): 39%
